Measurements: paper PMC8102066 (eLife, 2021)
Values joined by “and” are separate entries in the source; they are usually repeats but may differ in a detail not shown here. Equal values may be shown once. Values belong to the molecule of their own block, whether it stands above or below them.

Legend:
mGluR2-I779A = target: T1, mGluR2-I779A (Rattus norvegicus, UniProt P31421, I779A); assay: Calcium imaging in HEK 293 T cells; type: cell-based; conditions: for Calcium response amplitude: mGluR2-I779A
T1 construct: we performed calcium imaging experiments with mutations in the full-length mGluR2 background; expressed in transfected cells; host or cells: HEK 293 T
Procedure: Approximately 30 ROIs were analyzed per movie.

mGluR2 [1] = target: mGluR2 (Rattus norvegicus, UniProt P31421); assay: Calcium imaging (G protein chimera, GCaMP6f) in HEK 293 T cells
mGluR2-3xTM4 = mGluR2-3xTM4 (Rattus norvegicus, UniProt P31421, A677S/A681F/A685G); assay: as above; conditions: for Calcium response amplitude: normalized to 1 mM glutamate, replicates
mGluR2-TMD = mGluR2-TMD (Rattus norvegicus, UniProt P31421); assay: SiMPull subunit counting in the presence of ligands; conditions: for % Dimerization: SNAP-mGluR2-TMD in presence of the ligand, single replicates per experiment day; for effect of ligand on dimerization (SiMPull): saturating concentration
mGluR2-TMD-3xTM4 = assay: as above; parameters: species or system rat; conditions: for % Dimerization: SNAP-mGluR2-TMD-3xTM4 in presence of the ligand, single replicates per experiment day
mGluR2-TMD-I779A = assay: as above; parameters: species or system rat; conditions: for % Dimerization: SNAP-mGluR2-TMD-I779A in presence of the ligand, single replicates per experiment day
mGluR2-TMD-3xTM4-I779A = assay: as above; parameters: species or system rat; conditions: for % Dimerization: SNAP-mGluR2-TMD-3xTM4-I779A in presence of the ligand, single replicates per experiment day; for effect of ligand on dimerization (SiMPull): saturating concentration
mGluR2-C121A = target: T2, mGluR2-C121A (Rattus norvegicus, UniProt P31421, C121A); assay: as above; conditions: SNAP-mGluR2-C121A in presence of the ligand; single replicates per experiment day
T2 construct: expressed in transfected cells; host or cells: HEK 293 T (detergent lysate, pulled down by anti-HA antibody)

mGluR2-C121A-3xTM4 = target: T3, mGluR2-C121A-3xTM4 (Rattus norvegicus, UniProt P31421, A677S/A681F/A685G/C121A); assay: as above; conditions: for % Dimerization: SNAP-mGluR2-C121A-3xTM4 in presence of the ligand, single replicates per experiment day
T3 construct: expressed in transfected cells; host or cells: HEK 293 T (detergent lysate, pulled down by anti-HA antibody)

mGluR2-C121A-I779A = target: T4, mGluR2-C121A-I779A (Rattus norvegicus, UniProt P31421, C121A/I779A); assay: as above; conditions: for % Dimerization: SNAP-mGluR2-C121A-I779A in presence of the ligand, single replicates per experiment day
T4 construct: expressed in transfected cells; host or cells: HEK 293 T (detergent lysate, pulled down by anti-HA antibody)

mGluR2-C121A-3xTM4-I779A = target: T5, mGluR2-C121A-3xTM4-I779A (Rattus norvegicus, UniProt P31421, A677S/A681F/A685G/C121A/I779A); assay: as above; conditions: SNAP-mGluR2-C121A-3xTM4-I779A in presence of the ligand; single replicates per experiment day
T5 construct: expressed in transfected cells; host or cells: HEK 293 T (detergent lysate, pulled down by anti-HA antibody)

group II mGluR = test system: group II mGluR; parameters: method as in Hemstapat et al., 2007; conditions: ref Hemstapat et al., 2007; cited from earlier work
mGluR2 [2] = target: mGluR2 (Rattus norvegicus, UniProt P31421, INS660ASEIGTGFPFDPHYVEVLGERMHYVDVGPRDGTPVLFLHGNPTSSYVWRNIIPHVAPTHRCIAPDLIGMGKSDKPDLGYFFDDHVRFMDAFIEALGLEEVVLVIHDWGSALGFHWAKRNPERVKGIAFMEFIRPIPTWDEWPEFARETFQAFRTTDVGRKLIIDQNVFIEGTLPMGVVRPLTEVEMDHYREPFLNPVDREPLWRFPNELPIAGEPANIVALVEEYMDWLHQSPVPKLLFWGTPGVLIPPAEAARLAKSLPNCKAVDIGPGLNLLQEDNPDLIGSEIARWLSTLEISGLE); assay: Inter-TMD FRET sensor (HaloTag in ICL2), live cells
mGluR3 [3] = target: mGluR3 (Rattus norvegicus, UniProt P31422, INS669ASEIGTGFPFDPHYVEVLGERMHYVDVGPRDGTPVLFLHGNPTSSYVWRNIIPHVAPTHRCIAPDLIGMGKSDKPDLGYFFDDHVRFMDAFIEALGLEEVVLVIHDWGSALGFHWAKRNPERVKGIAFMEFIRPIPTWDEWPEFARETFQAFRTTDVGRKLIIDQNVFIEGTLPMGVVRPLTEVEMDHYREPFLNPVDREPLWRFPNELPIAGEPANIVALVEEYMDWLHQSPVPKLLFWGTPGVLIPPAEAARLAKSLPNCKAVDIGPGLNLLQEDNPDLIGSEIARWLSTLEISGLE); assay: as above
mGluR3 [4] = target: mGluR3 (Rattus norvegicus, UniProt P31422); assay: Calcium imaging (G protein chimera, GCaMP6f) in HEK 293 T cells
[5] = test system: SNAP-tagged mGluR2 and mGluR3 constructs; assay: Surface expression measurements; type: cell-based, rat; conditions: construct; single measurements
Text: ImageJ was used to analyze fluorescence intensity of cell clusters. […] Fluorescence intensity values for each construct were normalized to wild-type values for comparison.
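Wherever Basal FRET Response (%) is given: receptor HaloTag labeled with JF549 donor and JF646 acceptor (1:3), FRET taken as acceptor over summed donor plus acceptor fluorescence intensity, imaged at room temperature.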

UniProt P31422, sequence (P31422 with tags, fused parts or gaps with the stated changes): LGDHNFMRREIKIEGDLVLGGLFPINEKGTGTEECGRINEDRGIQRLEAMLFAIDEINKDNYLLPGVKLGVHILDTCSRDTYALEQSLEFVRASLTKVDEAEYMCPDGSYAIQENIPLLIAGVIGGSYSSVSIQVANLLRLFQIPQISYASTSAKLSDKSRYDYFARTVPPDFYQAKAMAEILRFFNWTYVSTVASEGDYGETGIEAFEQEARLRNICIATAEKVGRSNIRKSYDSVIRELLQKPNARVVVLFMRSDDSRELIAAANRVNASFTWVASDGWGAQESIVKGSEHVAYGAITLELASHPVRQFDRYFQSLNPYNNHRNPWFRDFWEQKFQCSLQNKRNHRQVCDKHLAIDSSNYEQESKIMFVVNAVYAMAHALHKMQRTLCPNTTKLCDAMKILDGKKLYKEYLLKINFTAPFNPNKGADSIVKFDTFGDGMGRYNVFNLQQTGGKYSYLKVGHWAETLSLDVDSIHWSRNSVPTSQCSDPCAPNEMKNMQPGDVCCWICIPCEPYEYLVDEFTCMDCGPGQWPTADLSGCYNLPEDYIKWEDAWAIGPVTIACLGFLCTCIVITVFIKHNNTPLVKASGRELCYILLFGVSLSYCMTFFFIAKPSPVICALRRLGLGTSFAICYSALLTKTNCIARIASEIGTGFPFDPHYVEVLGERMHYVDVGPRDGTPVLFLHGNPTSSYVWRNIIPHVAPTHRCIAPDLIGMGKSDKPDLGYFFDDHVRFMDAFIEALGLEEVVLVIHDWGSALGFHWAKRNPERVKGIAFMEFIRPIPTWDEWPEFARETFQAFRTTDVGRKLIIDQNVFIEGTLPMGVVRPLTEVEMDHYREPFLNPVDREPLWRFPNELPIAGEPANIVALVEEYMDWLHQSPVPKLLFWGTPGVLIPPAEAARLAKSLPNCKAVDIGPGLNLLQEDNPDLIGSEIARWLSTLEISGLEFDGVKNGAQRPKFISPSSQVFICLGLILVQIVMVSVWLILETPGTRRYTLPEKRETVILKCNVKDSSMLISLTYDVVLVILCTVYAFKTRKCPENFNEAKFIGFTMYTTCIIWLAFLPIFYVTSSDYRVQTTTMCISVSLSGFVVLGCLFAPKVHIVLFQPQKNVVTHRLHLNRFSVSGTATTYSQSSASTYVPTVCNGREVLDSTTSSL
T1 sequence (P31421 19-872 I779A): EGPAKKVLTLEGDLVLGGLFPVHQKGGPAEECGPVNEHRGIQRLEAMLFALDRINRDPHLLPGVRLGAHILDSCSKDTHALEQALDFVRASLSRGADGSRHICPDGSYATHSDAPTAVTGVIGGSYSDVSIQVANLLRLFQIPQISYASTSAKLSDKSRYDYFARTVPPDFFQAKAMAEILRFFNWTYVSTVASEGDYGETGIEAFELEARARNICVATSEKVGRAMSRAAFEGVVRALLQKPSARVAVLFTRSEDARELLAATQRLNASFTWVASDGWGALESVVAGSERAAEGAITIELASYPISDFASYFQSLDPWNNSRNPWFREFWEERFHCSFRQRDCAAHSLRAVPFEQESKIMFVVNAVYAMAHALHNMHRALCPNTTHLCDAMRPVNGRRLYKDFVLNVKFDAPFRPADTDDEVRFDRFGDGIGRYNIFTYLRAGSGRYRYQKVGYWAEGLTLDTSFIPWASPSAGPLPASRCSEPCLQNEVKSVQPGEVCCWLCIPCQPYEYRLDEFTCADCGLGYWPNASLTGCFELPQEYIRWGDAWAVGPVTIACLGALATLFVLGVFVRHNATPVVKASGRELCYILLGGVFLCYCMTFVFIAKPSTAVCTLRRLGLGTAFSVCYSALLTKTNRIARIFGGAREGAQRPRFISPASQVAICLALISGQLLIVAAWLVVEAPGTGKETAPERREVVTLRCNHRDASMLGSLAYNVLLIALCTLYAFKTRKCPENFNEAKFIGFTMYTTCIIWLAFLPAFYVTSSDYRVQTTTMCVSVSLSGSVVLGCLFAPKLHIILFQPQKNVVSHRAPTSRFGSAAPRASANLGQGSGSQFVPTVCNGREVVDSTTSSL
mGluR2 (Rattus norvegicus, UniProt P31421), sequence (P31421 19-872): as the sequence (P31421 19-872 I779A) above, with A761I counted along it
mGluR2-TMD, sequence (P31421 558-821 limits assumed): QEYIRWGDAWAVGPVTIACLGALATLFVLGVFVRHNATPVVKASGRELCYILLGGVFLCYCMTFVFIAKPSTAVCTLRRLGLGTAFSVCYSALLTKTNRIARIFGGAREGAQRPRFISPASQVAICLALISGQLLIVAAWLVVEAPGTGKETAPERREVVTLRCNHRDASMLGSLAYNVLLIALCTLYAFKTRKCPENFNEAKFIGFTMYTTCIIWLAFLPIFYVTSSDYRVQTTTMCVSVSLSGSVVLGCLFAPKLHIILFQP
T5 sequence (P31421 19-872 C121A/A677S/A681F/A685G/I779A): as the sequence (P31421 19-872 I779A) above, with C103A, A659S, A663F, A667G counted along it
T3 sequence (P31421 19-872 C121A/A677S/A681F/A685G): as the sequence (P31421 19-872 I779A) above, with C103A, A659S, A663F, A667G, A761I counted along it
UniProt P31421, sequence (P31421 with tags, fused parts or gaps with the stated changes): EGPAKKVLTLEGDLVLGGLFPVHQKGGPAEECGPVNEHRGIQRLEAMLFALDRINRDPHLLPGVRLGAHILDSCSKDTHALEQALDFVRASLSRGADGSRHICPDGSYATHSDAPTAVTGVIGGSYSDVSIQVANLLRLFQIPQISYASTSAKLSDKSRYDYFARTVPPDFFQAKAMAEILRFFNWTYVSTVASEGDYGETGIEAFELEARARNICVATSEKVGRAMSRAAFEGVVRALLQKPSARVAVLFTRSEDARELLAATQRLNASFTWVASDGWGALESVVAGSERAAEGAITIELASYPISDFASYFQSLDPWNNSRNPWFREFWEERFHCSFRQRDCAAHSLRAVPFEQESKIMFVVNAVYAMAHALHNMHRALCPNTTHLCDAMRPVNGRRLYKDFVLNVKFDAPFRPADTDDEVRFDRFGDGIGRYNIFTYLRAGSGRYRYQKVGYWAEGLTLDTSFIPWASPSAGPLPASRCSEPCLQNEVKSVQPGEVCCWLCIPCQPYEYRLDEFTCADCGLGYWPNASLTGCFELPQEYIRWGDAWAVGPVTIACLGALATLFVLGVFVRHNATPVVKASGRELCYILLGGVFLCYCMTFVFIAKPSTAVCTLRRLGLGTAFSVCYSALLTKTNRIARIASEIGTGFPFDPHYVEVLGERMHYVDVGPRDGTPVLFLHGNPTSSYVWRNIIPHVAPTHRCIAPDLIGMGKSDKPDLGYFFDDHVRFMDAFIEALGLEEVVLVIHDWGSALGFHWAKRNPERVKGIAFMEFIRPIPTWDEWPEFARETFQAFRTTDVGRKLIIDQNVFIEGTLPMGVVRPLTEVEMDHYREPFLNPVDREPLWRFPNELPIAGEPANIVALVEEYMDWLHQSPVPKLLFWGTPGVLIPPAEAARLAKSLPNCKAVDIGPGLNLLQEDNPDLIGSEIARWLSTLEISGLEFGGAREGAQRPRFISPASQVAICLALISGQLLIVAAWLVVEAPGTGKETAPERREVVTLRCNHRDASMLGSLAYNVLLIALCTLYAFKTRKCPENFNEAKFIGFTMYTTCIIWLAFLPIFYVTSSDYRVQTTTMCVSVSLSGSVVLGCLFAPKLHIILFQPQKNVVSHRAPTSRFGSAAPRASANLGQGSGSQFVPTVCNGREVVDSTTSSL
T4 sequence (P31421 19-872 C121A/I779A): as the sequence (P31421 19-872 I779A) above, with C103A counted along it
mGluR2-3xTM4, sequence (P31421 19-872 A677S/A681F/A685G): as the sequence (P31421 19-872 I779A) above, with A659S, A663F, A667G, A761I counted along it
T2 sequence (P31421 19-872 C121A): as the sequence (P31421 19-872 I779A) above, with C103A, A761I counted along it
mGluR3 (Rattus norvegicus, UniProt P31422), sequence (P31422 23-879): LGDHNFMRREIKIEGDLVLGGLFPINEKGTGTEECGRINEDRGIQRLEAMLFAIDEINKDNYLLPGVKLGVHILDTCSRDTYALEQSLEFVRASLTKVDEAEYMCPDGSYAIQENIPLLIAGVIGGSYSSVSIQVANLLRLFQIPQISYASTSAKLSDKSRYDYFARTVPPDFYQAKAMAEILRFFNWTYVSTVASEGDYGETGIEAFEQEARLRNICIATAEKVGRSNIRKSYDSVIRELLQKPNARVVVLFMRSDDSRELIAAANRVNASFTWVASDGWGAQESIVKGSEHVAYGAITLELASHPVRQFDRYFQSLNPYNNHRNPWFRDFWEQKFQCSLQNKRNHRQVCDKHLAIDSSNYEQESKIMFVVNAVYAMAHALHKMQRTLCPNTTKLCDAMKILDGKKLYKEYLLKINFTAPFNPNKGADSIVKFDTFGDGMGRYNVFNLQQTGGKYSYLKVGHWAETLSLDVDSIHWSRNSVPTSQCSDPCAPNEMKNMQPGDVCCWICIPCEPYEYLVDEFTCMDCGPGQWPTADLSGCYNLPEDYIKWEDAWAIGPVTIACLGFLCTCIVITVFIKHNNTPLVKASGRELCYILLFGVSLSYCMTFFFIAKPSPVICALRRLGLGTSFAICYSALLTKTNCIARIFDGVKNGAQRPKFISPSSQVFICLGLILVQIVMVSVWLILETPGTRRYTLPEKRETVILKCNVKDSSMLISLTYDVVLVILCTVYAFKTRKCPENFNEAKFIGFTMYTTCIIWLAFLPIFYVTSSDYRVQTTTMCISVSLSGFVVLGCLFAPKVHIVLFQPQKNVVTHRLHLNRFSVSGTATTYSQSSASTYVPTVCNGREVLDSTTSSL

- Calcium response amplitude (mGluR2-I779A; LY487379 100 nM): 0.00
- Calcium response amplitude (mGluR2-I779A; LY487379 3 uM): 0.21 and 0.14
- Calcium response amplitude (mGluR2-I779A; LY487379 10 uM): 0.34 and 0.27
- Calcium response amplitude (mGluR2-I779A; LY487379 100 uM): 0.49 and 0.44
- shift of LY48 EC50 compared to mGluR2 (mGluR2-I779A; calcium imaging, rightward): 12 fold
- EC50 (mGluR2-I779A; read-out: LY48 EC50, calcium imaging): 5.46 ± 0.01 µM
- EC50 (mGluR2 [1]): 0.45 ± 0.1 µM
- Calcium response amplitude (mGluR2 [1]; LY487379 1 nM, mGluR2): 0.00
- Calcium response amplitude (mGluR2 [1]; LY487379 1 nM, normalized to 1 mM glutamate, replicates): 0.00
- Calcium response amplitude (mGluR2 [1]; LY487379 10 nM, mGluR2): 0.00
- Calcium response amplitude (mGluR2 [1]; LY487379 10 nM, normalized to 1 mM glutamate, replicates): 0.00
- Calcium response amplitude (mGluR2 [1]; LY487379 100 nM, normalized to 1 mM glutamate, replicates): 0.09 and 0.00 and 0.07 and 0.33
- Calcium response amplitude (mGluR2 [1]; LY487379 3 uM, mGluR2): 0.70 and 0.58 and 0.72
- Calcium response amplitude (mGluR2 [1]; LY487379 3 uM, normalized to 1 mM glutamate, replicates): 0.70 and 0.58 and 0.72
- Calcium response amplitude (mGluR2 [1]; LY487379 100 uM, mGluR2): 0.76 and 0.82 and 0.73 and 0.74
- Calcium response amplitude (mGluR2 [1]; LY487379 100 uM, normalized to 1 mM glutamate, replicates): 0.76 and 0.82 and 0.73 and 0.74
- EC50 (mGluR2-3xTM4): 0.27 ± 0.06 µM
- Calcium response amplitude (mGluR2-3xTM4; LY487379 1 nM): 0.00
- Calcium response amplitude (mGluR2-3xTM4; LY487379 10 nM): 0.14 and 0.16 and 0.09 and 0.00
- Calcium response amplitude (mGluR2-3xTM4; LY487379 100 nM): 0.27 and 0.19 and 0.25
- Calcium response amplitude (mGluR2-3xTM4; LY487379 1 uM): 0.80 and 0.82 (2×) and 0.66
- Calcium response amplitude (mGluR2-3xTM4; LY487379 3 uM): 0.86 and 0.89
- Calcium response amplitude (mGluR2-3xTM4; LY487379 10 uM): 0.94 and 0.93 and 0.86
- Calcium response amplitude (mGluR2-3xTM4; LY487379 100 uM): 0.97 and 0.91 and 0.99
Molecule: COc1ccccc1Oc1ccc(N(Cc2cccnc2)S(=O)(=O)CC(F)(F)F)cc1 [LY487379, N-(4-(2-methoxyphenoxy)phenyl)-N-(2,2,2-trifluoroethylsulfonyl)pyrid-3-ylmethylamine]
- Calcium response amplitude (mGluR2 [1]; LY487379 1 uM, mGluR2): 0.53 and 0.49 and 0.68 and 0.50 and 0.51 and 0.46
- Calcium response amplitude (mGluR2 [1]; LY487379 1 uM, normalized to 1 mM glutamate, replicates): 0.53 and 0.49 and 0.68 and 0.50 and 0.51 and 0.46
- Calcium response amplitude (mGluR2 [1]; LY487379 10 uM, mGluR2): 0.61 and 0.56 and 0.77 and 0.92 and 0.74 and 0.69
- Calcium response amplitude (mGluR2 [1]; LY487379 10 uM, normalized to 1 mM glutamate, replicates): 0.61 and 0.56 and 0.77 and 0.92 and 0.74 and 0.69

- effect of ligand on dimerization (SiMPull) (mGluR2-TMD): no sensitivity
- effect of ligand on dimerization (SiMPull) (mGluR2-C121A-3xTM4; saturating concentration): significantly increases dimerization
Molecule: Cc1c(C(N)=O)nc2n1C[C@@H](COc1ccc(C(C)(C)C)cc1)O2 [TASP]
- % Dimerization (mGluR2-TMD): 70.24% and 67.71% and 72.49% and 72.50% and 70.98% and 74.03%
- % Dimerization (mGluR2-TMD-3xTM4): 69.61% and 70.23% and 79.80% and 76.57% and 71.76% and 76.09%
- effect of ligand on dimerization (SiMPull) (mGluR2-TMD-3xTM4; saturating concentration): clear increase in dimerization
- % Dimerization (mGluR2-TMD-I779A): 52.39% and 61.74% and 61.54% and 62.46% and 33.04% and 41.52%
- % Dimerization (mGluR2-TMD-3xTM4-I779A): 47.45% and 39.66% and 50.29% and 36.75% and 47.53% and 38.72%
- effect of ligand on dimerization (SiMPull) (mGluR2-TMD-3xTM4-I779A): prevented any PAM- or NAM-induced dimerization shifts
- % Dimerization (mGluR2-C121A): 76.12% and 87.00% and 99.52% and 87.93% and 80.12% and 79.00%
- % Dimerization (mGluR2-C121A-3xTM4): 78.37% and 85.60% and 87.01% and 85.50% and 86.03% and 88.59%
- % Dimerization (mGluR2-C121A-I779A): 59.23% and 63.47% and 55.82% and 58.53% and 66.92% and 63.85%
- % Dimerization (mGluR2-C121A-3xTM4-I779A): 50.00% and 40.35% and 44.84% and 41.46% and 44.90% and 44.88%

- effect of ligand on dimerization (SiMPull) (mGluR2-TMD): no sensitivity
- effect of ligand on dimerization (SiMPull) (mGluR2-C121A-I779A; saturating concentration): significantly increases dimerization
- block of glutamate-induced FRET responses (mGluR2 [2]; MNI 137 10 μM): 32.0 ± 4.5%
- Maximum % Inhibition (mGluR2 [2]; mGluR2, Experiment: FRET): 29.8% and 42.4% and 23.8%
- block of glutamate-induced FRET responses (mGluR3 [3]; MNI 137 10 μM): 42.9 ± 7.4%
- block of glutamate-induced FRET responses (mGluR3 [3]; MNI 137 50 μM, n = 3): 44.9 ± 8.3%
- block of functional (calcium) glutamate response (mGluR2 [1]; MNI 137 10 μM): full block of functional responses
- Maximum % Inhibition (mGluR2 [1]; mGluR2, Experiment: Function): 100%
- block of functional (calcium) glutamate response (mGluR3 [4]; MNI 137 10 μM): full block of functional responses
- Maximum % Inhibition (mGluR3 [4]; mGluR3, Experiment: Function): 100%
Molecule: MNI 137
- % Dimerization (mGluR2-TMD): 80.57% and 69.39% and 68.4% and 70.29% and 73.87% and 66.8% and 70.292% and 73.871% and 80.566% and 69.3893%
- % Dimerization (mGluR2-TMD-3xTM4): 39.03% and 46.76% and 55.63% and 64.38% and 47.94% and 59.01%
- % Dimerization (mGluR2-TMD-I779A): 60.52% and 74.21% and 73.33% and 77.72% and 88.90% and 81.43%
- effect of ligand on dimerization (SiMPull) (mGluR2-TMD-I779A; saturating concentration): clear increase
- % Dimerization (mGluR2-TMD-3xTM4-I779A): 46.88% and 52.99% and 50.80% and 55.60% and 41.02% and 44.69%
- effect of ligand on dimerization (SiMPull) (mGluR2-TMD-3xTM4-I779A): prevented any PAM- or NAM-induced dimerization shifts
- % Dimerization (mGluR2-C121A): 71.52% and 91.33% and 86.77% and 100.30% and 93.63% and 83.88%
- % Dimerization (mGluR2-C121A-3xTM4): 70.00% and 81.03% and 62.91% and 67.92% and 62.85% and 68.46%
- % Dimerization (mGluR2-C121A-I779A): 83.51% and 83.55% and 76.24% and 73.81% and 83.57% and 74.66%
- % Dimerization (mGluR2-C121A-3xTM4-I779A): 49.83% and 50.71% and 40.36% and 45.67% and 37.52% and 54.71%
- IC50 (group II mGluR): ~0.01 µM
- Basal FRET Response (%) (mGluR3 [3]; mGluR3-Halo-ICL2, absence of glutamate, individual measurements): 13.3% and 15.2% and 5% and 5.6% and 0% and 19.5% and 7.8% and 52%

Molecule: SNAP-mGluR2-P778A
- Surface Expression [5]: 0.58 and 0.76 and 0.68 and 0.87 and 0.59 and 1.10 and 0.91
